Source: a melting point compilation (Tetko et al.; mined from patent text by program, amines drawn as free bases though some values may be those of a salt)

SMILES	melting point [°C]
CCOC(=O)CNC(=O)N1CCn2c(c(C(N)=O)c(Cl)c2-c2ccccc2)C1	94 to 97
COc1ccc(C2=NN(CCCCCCNCC(O)c3ccc(N)c(C#N)c3)C(=O)C3CCCCC23)cc1OC (centres undefined)	101 to 103
CS(=O)(=O)c1ccc(-c2cnn(Cc3c(F)c(F)c(F)c(F)c3F)c(=O)c2-c2ccc(F)cc2)cc1	115 to 116
CC(C)C(c1ccccc1N1CCCCC1)C(C(N)=O)c1ccc(C(=O)O)cc1 (centres undefined)	215 to 217
COCC(OC(C)=O)C1CC(O)C2(C)CCC3C(CCC4=CC(=O)C=C(C)C43C)C12 (centres undefined)	203 to 204
N#Cc1cccnc1N1CCN(CC(=O)Nc2cccc([N+](=O)[O-])c2)CC1	143 to 145
COc1ccc(C(=O)Nc2ccccc2)cc1Nc1cccc(C(F)(F)F)c1	183 to 184
O=C(O)c1ccc(NCc2ccc(F)cc2)cn1	197 to 200
COc1cc(C(C)=O)ccc1OCCCN1CCC(C(O)(c2ccccc2)c2ccc(F)cc2)CC1 (centres undefined)	147 to 148
Cc1cc(OCc2ccc(-c3ccc(C(F)(F)F)cc3)nc2)ccc1OC(C)(C)C(=O)O	149 to 151
O=S(c1ccccc1)c1cccnc1 (centres undefined)	56
CCCCC(CC)COC(=O)C(C#N)=C1C=C(C)N(CCCC)C(C)=C1 (centres undefined)	69 to 70
CCCCCCCCCCCCCCCCCCC(N)C(N)=O (centres undefined)	103 to 104
CN1CCCC1=C(C#N)c1ccc(Cl)cc1	71 to 72
COc1cc2c(cc1Br)CC(C)NN=C2c1ccc([N+](=O)[O-])cc1 (centres undefined)	172 to 174
CC(C)(O)c1ccc(CNC(=O)c2cccnc2Oc2ccc3ncoc3c2)cc1	92 to 94
CC1CC(C(=O)Nc2ccccc2)(C(=O)OC(C)(C)C)N(C(=O)CNC(=O)OC(C)(C)C)C1c1ccccc1 (centres undefined)	182
CC(=O)c1ccc(CNC(=O)C(F)(F)F)s1	83 to 84
Cc1onc(-c2ccccc2)c1-c1ccccc1	95.5 to 96.2
Cc1ncc([N+](=O)[O-])n1CCN1C(=O)c2ccccc2C1=O	177
CC(C)(NC(=O)c1nc2ccc(NCCCN3CCC(OC(c4ccccc4)c4ccccc4)CC3)nn2n1)C(=O)O	247 to 249
Cc1ccc(-c2nc(C)c(C)c(Cl)n2)cc1	165

Continued, values first:

melting point [°C]	SMILES
131 to 135	Cc1c(C)c2ccc(OCc3ccccc3)cc2oc1=O
194 to 195	COC(=O)c1cccc(OC(=O)C(=O)Oc2cccc(C(=O)OC)c2)c1
140 to 142	O=S1N=C(NCCCN(Cc2ccccc2)c2ccccn2)C(NCc2ccncc2)=N1 (centres undefined)
155 to 156	Cn1c(C(F)(F)F)cc(=O)n(-c2ccc3snc(C(C)(C)C(=O)O)c3c2)c1=O
148 to 150	COc1cc(-c2cc(C)no2)cc2oc(=O)c(C)c(C)c12
175 to 178	CC1(C)N=C(c2ccc(N)cc2)CC1c1ccncc1 (centres undefined)
112 to 114	COc1ccc2c(c1)C(Cl)(C(F)(F)F)OC(=O)N2 (centres undefined)
53	CCCCC[C@H]1CC[C@H](c2ccc(CC#N)cc2)CC1
142 to 144	CC1(C(=O)O)OC2CCCCC2NC1=O (centres undefined)
121 to 124	Cn1c(Oc2cccc(N=C=S)c2)nc2ccccc21
143	CCOC(=O)N(Cc1ccccc1)Cn1cc(Cl)cnc1=O
74.5 to 75	C=CCOc1ccc(C(=O)C=Cc2ccc(OC)c(OC)c2)cc1
192 to 194	CN(C(CCn1c(=O)[nH]c2ccsc2c1=O)C(=O)NO)S(=O)(=O)c1ccc(Oc2cccc(Cl)c2)cc1 (centres undefined)
116 to 118	COc1cc2c(cc1C)CCN=C2C1(c2ccsc2)CC1
154 to 157	N#Cc1ccc(C(=O)CNc2ccc(Br)cc2)cc1
106 to 108	CCOC(=O)c1ccc2cnccc2n1
205 to 207	CCN(C(=O)CN1C(=O)c2ccccc2C1=O)c1ccc(C)c(CO)c1C
72 to 74	COC(=O)CCn1ncc(-c2ccccc2)c1-c1ccccc1
153 to 154	ON=C1OC2C=CC1CC2 (centres undefined)
37 to 38	CCCCCCCCCCCC(CC(=O)C(CCCCCC)C(=O)OC)OC1CCCCO1 (centres undefined)
190 to 220	CCCCCCCCCCCCCCCCNc1ccc(C(=O)NCCS(=O)(=O)O)cc1
118 to 120	COCCOC(=O)C(=O)Nc1nc(-c2ccccc2)cs1
130 to 131	CC(C)(C)c1cc(C2SCC(=O)N2CCCBr)cc(C(C)(C)C)c1O (centres undefined)
56 to 57	CCCCCCCCOc1cc(N)c(OCOC)c(OC)c1
89 to 90	O=C(/C=C/C=C(c1cccc(C(F)(F)F)c1)c1cccc(C(F)(F)F)c1)NCCCCc1cccnc1
88 to 90	CCCCN1C(C)=C(C(=O)OCC)C(c2cc([N+](=O)[O-])ccc2OCC(=O)OCC)C(C(=O)OCC)=C1C
170 to 172	CC(Oc1ccnc2ccccc12)C(=O)Nc1ccc(Cl)cc1 (centres undefined)
